Source: ChEMBL document CHEMBL1201862, “PubChem BioAssay data set” (2004)
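All cell lines were grown in 96-well plates and treated with compound for 48 hours. At the GI50, growth is halved.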 Activity calls are given as the source filed them. No stated cut-off is given here; in the data, active = GI50 up to about 1.1 µM and inactive = higher.

How the values were obtained:
Experiment in all cases: NCI tumour cell line growth inhibition, 48 h
EKVX = test system: EKVX
MCF7 = test system: MCF7
M14 = test system: M14
SW-620 = test system: SW-620
A549 = test system: A549
SN12C = test system: SN12C
HT-29 = test system: HT-29
OVCAR-4 = test system: OVCAR-4
NCI-H460 = test system: NCI-H460
HCT-116 = test system: HCT-116
SF-539 = test system: SF-539
SF-295 = test system: SF-295
SR = test system: SR
NCI-H226 = test system: NCI-H226
SF-268 = test system: SF-268
MDA-MB-231 = test system: MDA-MB-231
COLO 205 = test system: COLO 205
RXF 393 = test system: RXF 393
HCC 2998 = test system: HCC 2998
SK-MEL-5 = test system: SK-MEL-5

Measured: GI50

Cc1cccc(/C=C2\CCCc3ccccc3C2=O)c1
inactive: EKVX 20.6 µM | MCF7 16.9 µM | M14 17.9 µM | SW-620 16.8 µM | A549 24.2 µM | SN12C 17.9 µM | HT-29 18.5 µM | OVCAR-4 19.1 µM | NCI-H460 16.8 µM | HCT-116 15 µM | SF-539 18.7 µM | SF-295 19.5 µM | SR 15 µM | NCI-H226 20.6 µM | SF-268 15.2 µM | MDA-MB-231 18.5 µM | COLO 205 18.9 µM

CN(O)C(=O)CCCC(=O)NCC(C)(C)CNC(=O)CCCC(=O)N(C)O
inactive: RXF 393 > 100 µM | EKVX > 100 µM | MCF7 > 100 µM | M14 > 100 µM | SW-620 > 100 µM | A549 > 100 µM | HT-29 > 100 µM | OVCAR-4 > 100 µM | NCI-H460 > 100 µM | SF-539 > 100 µM | HCC 2998 > 100 µM | SF-295 > 100 µM | SR > 100 µM | NCI-H226 > 100 µM | SF-268 > 100 µM | MDA-MB-231 > 100 µM | COLO 205 > 100 µM | SK-MEL-5 > 100 µM

CCOC(=O)c1cc2c([N+](=O)[O-])c(NC(C)=O)ccc2s1
inactive: RXF 393 20.2 µM | EKVX 12.6 µM | MCF7 63 µM | M14 > 100 µM | SW-620 > 100 µM | A549 50.2 µM | SN12C 92 µM | HT-29 89.7 µM | OVCAR-4 68.4 µM | NCI-H460 > 100 µM | HCT-116 87.9 µM | SF-539 > 100 µM | HCC 2998 > 100 µM | SF-295 69.3 µM | NCI-H226 13.3 µM | SF-268 50.7 µM | MDA-MB-231 24.1 µM | COLO 205 34.8 µM | SK-MEL-5 39.4 µM

C=CCn1c(=O)ccn(COCCO)c1=O
inactive: RXF 393 > 100 µM | EKVX > 100 µM | MCF7 > 100 µM | M14 > 100 µM | SW-620 > 100 µM | A549 > 100 µM | SN12C > 100 µM | HT-29 > 100 µM | OVCAR-4 > 100 µM | NCI-H460 > 100 µM | SF-539 > 100 µM | HCC 2998 > 100 µM | SR > 100 µM | NCI-H226 > 100 µM | SF-268 > 100 µM | MDA-MB-231 > 100 µM | COLO 205 > 100 µM | SK-MEL-5 > 100 µM

NC(=O)c1ncn2c1NC(=O)CC2
inactive: RXF 393 > 100 µM | EKVX > 100 µM | MCF7 > 100 µM | SW-620 > 100 µM | A549 > 100 µM | SN12C > 100 µM | HT-29 > 100 µM | OVCAR-4 > 100 µM | NCI-H460 > 100 µM | HCT-116 > 100 µM | SF-539 > 100 µM | HCC 2998 > 100 µM | SF-295 > 100 µM | NCI-H226 > 100 µM | SF-268 > 100 µM | COLO 205 > 100 µM | SK-MEL-5 > 100 µM

C=CCN1C(=O)/C(=C/c2ccc(OC)cc2)NC1=S
inactive: RXF 393 37.2 µM | EKVX 18.3 µM | MCF7 40.9 µM | M14 53.3 µM | SW-620 > 100 µM | A549 34.8 µM | SN12C > 100 µM | HT-29 57.9 µM | OVCAR-4 54.5 µM | NCI-H460 > 100 µM | HCT-116 48 µM | SF-539 > 100 µM | HCC 2998 > 100 µM | SF-295 54.2 µM | SR 29.3 µM | NCI-H226 37.9 µM | SF-268 > 100 µM | MDA-MB-231 > 100 µM | COLO 205 > 100 µM | SK-MEL-5 30.5 µM

CC1CC(NC2CCCCC2)=Nc2ccccc2N1Cc1ccccc1 (configuration not stated)
inactive: RXF 393 2.36 µM | EKVX 8.22 µM | MCF7 3.66 µM | M14 2.04 µM | SW-620 6.37 µM | A549 4.43 µM | SN12C 7.85 µM | HT-29 2.82 µM | OVCAR-4 5.78 µM | NCI-H460 3.37 µM | HCT-116 4.71 µM | SF-539 5.62 µM | HCC 2998 2.31 µM | SF-295 6.03 µM | SR 2.64 µM | NCI-H226 12.7 µM | SF-268 4.06 µM | MDA-MB-231 4.51 µM | COLO 205 4.35 µM | SK-MEL-5 2.43 µM

O=CN1CCC23CC(O)CCC2C1Cc1cc(Oc2nnnn2-c2ccccc2)cc(O)c13 (configuration not stated)
inactive: RXF 393 > 100 µM | EKVX > 100 µM | MCF7 54 µM | M14 > 100 µM | SW-620 > 100 µM | A549 > 100 µM | SN12C > 100 µM | HT-29 59.4 µM | OVCAR-4 86.1 µM | NCI-H460 85.9 µM | HCT-116 > 100 µM | SF-539 > 100 µM | HCC 2998 > 100 µM | SF-295 > 100 µM | SR 55 µM | NCI-H226 > 100 µM | SF-268 > 100 µM | MDA-MB-231 > 100 µM | COLO 205 32.9 µM | SK-MEL-5 47.2 µM

O=C1/C(=C/c2ccccc2)NC(=S)N1CN1CCOCC1
inactive: EKVX > 100 µM | MCF7 > 100 µM | M14 > 100 µM | SW-620 > 100 µM | A549 > 100 µM | SN12C > 100 µM | HT-29 > 100 µM | OVCAR-4 72.8 µM | HCT-116 > 100 µM | SF-295 > 100 µM | SR > 100 µM | NCI-H226 > 100 µM | SF-268 > 100 µM | MDA-MB-231 > 100 µM | COLO 205 > 100 µM | SK-MEL-5 > 100 µM

CCOP(=Nc1ccc(N(C)C)cc1)(OCC)OCC
inactive: RXF 393 > 100 µM | EKVX > 100 µM | MCF7 > 100 µM | M14 > 100 µM | A549 > 100 µM | OVCAR-4 > 100 µM | NCI-H460 > 100 µM | HCT-116 > 100 µM | HCC 2998 > 100 µM | SF-295 > 100 µM | SF-268 > 100 µM | MDA-MB-231 > 100 µM | COLO 205 > 100 µM | SK-MEL-5 > 100 µM

CC(C)CC(NC(=O)OCc1ccccc1)C(=O)NCCCCC(N)C(=O)NC(CCCCNC(=O)C(CC(C)C)NC(=O)OCc1ccccc1)C(=O)NC(CCCCNC(=O)C(CC(C)C)NC(=O)OCc1ccccc1)C(=O)NC(CCCCNC(=O)C(CC(C)C)NC(=O)OCc1ccccc1)C(=O)NC(CCCCNC(=O)C(CC(C)C)NC(=O)OCc1ccccc1)C(=O)NC(CCCCNC(=O)C(CC(C)C)NC(=O)OCc1ccccc1)C(=O)O (configuration not stated)
inactive: MCF7 > 100 µM | SW-620 > 100 µM | A549 > 100 µM | SN12C > 100 µM | HT-29 > 100 µM | OVCAR-4 > 100 µM | NCI-H460 > 100 µM | HCT-116 > 100 µM | HCC 2998 > 100 µM | SR > 100 µM | NCI-H226 > 100 µM | MDA-MB-231 > 100 µM | SK-MEL-5 > 100 µM
